Measured values taken from patent publication US20240343754A1, “7-SUBSTITUTED 7-DEAZAADENINE-CONTAINING 2',3'-CYCLIC DINUCLEOTIDES” (USTAV ORGANICKE CHEMIE A BIOCHEMIE AV CR, V. V. I., priority 2021, published 2024).
Read-outs that look alike come from different tables or passages of the source.

Legend:
[1] = system: Peripheral blood mononuclear cells (PBMC); experiment: PBMC assay: induction of cytokines INFα and INFγ; type: cell-based; conditions: Homo sapiens, PBMCs, 16 h incubation, mean from three different PBMC donors
[2] = Cytotoxic effect on PBMCs (CellTiter-Glo Luminescent Cell Viability Assay); type: cell-based; conditions: human, 16 h incubation, mean from three different PBMC donors
Method: Briefly, buffy coats were obtained from the Institute of Hematology and Blood Transfusion (Prague, Czech Republic). Informed written consent was signed by each volunteer. Isolation of PBMCs was performed on Ficoll density gradient centrifugation (Ficoll Paque Plus, GE Healthcare, USA) in SepMate tubes (SepMate PBMC Isolation Tubes, Stemcell Technologies, Canada). Obtained PBMCs were washed using PBS with 2 mM EDTA, and then seeded onto 96-well U-shape plates at density 500,000 cells per well in RPMI 1640 media with 10% (v/v) heat inactivated FBS. Serially diluted CDNs were added to cells and cells were incubated for 16 h (37° C., 5% CO2). After incubation, medium was collected to determine levels of INFα and INFγ using ProcartaPlex Assays and MAGPIX System (Merck, Germany) according to the manufacturer's instructions. Cytotoxic effect of CDNs on PBMCs was determined using CellTiter-Glo® Luminescent Cell Viability Assay (Promega Corporation, USA) according to manufacturer's instruction.

wt hSTING = wt hSTING (Homo sapiens, UniProt Q86WV6); experiment: Standard 293T reporter cell-based assay (IRF-3 dependent firefly luciferase reporter); conditions: read-out: Standard assay EC50; 293T reporter cells expressing wt hSTING; 7 h incubation; mean of three independent experiments in triplicates, SD <50%
Method: Briefly, the day before testing cells were seeded onto 96-well white plates at density 250,000 cells per cm^2 in DMEM High glucose medium supplemented with 10% (v/v) heat inactivated fetal bovine albumin (FBS). The next day medium was removed, and cell were incubated for 7 h (37° C., 5% CO2) with serial dilution of compounds in medium. After incubation, Bright-Glo Luciferase Assay System reagent was added to cells and luminescence readout was performed on SPARK instrument (Tecan, Austria). EC50 values were determined using in software Prism (GraphPad, USA).

[3] = read-out: PBMC assay EC50 INF α
[4] = read-out: PBMC assay EC50 INF γ

Chain of wt hSTING (Q86WV6 whole entry H232R): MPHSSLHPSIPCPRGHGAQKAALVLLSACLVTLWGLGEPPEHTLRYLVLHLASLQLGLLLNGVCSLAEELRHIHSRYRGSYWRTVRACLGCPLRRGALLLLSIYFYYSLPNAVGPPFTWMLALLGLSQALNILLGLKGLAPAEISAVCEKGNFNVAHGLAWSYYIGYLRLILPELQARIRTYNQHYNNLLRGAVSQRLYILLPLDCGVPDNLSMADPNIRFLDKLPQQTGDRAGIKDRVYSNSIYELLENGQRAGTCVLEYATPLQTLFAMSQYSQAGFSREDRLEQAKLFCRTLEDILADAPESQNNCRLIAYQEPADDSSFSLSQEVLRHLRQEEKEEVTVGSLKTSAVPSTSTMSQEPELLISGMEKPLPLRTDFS

Row | EC50 (wt hSTING) | Structure (SMILES) | EC50 [1, 3] | EC50 [1, 4] | CC50 at 16 h [2]
1 | 2.58 µM | Nc1nc2c(ncn2[C@@H]2O[C@@H]3COP(=O)(O)O[C@H]4[C@@H](O)[C@H](n5cc(-c6ccc(COc7cccc8ccccc78)cc6)c6c(N)ncnc65)O[C@@H]4COP(=O)(O)O[C@@H]2[C@@H]3O)c(=O)[nH]1 [Compound 1h, 2-amino-9-((5R,7R,8R,12aR,14R,15R,15aS,16R)-14-(4-amino-5-(4-((naphthalen-1-yloxy)methyl)phenyl)-7H-pyrrolo[2,3-d]pyrimidin-7-yl)-2,10,15,16-tetrahydroxy-2,10-dioxidooctahydro-12H-5,8-methanofuro[3,2-l][1,3,6,9,11]pentaoxa[2,10]diphosphacyclotetradecin-7-yl)-1,9-dihydro-6H-purin-6-one] | 1.97 µM | 1.08 µM | > 200 µM
2 | 10.9 µM | Nc1nc2c(ncn2[C@@H]2O[C@@H]3COP(=O)(O)O[C@H]4[C@@H](O)[C@H](n5cc(-c6cc7ccccc7o6)c6c(N)ncnc65)O[C@@H]4COP(=O)(O)O[C@@H]2[C@@H]3O)c(=O)[nH]1 [Compound 1k, 2-amino-9-((5R,7R,8R,12aR,14R,15R,15aS,16R)-14-(4-amino-5-(benzo[b]furan-2-yl)-7H-pyrrolo[2,3-d]pyrimidin-7-yl)-2,10,15,16-tetrahydroxy-2,10-dioxidooctahydro-12H-5,8-methanofuro[3,2-l][1,3,6,9,11]pentaoxa[2,10]diphosphacyclotetradecin-7-yl)-1,9-dihydro-6H-purin-6-one] | 13.8 µM | 8.48 µM | > 200 µM
3 | 8.69 µM | Nc1nc2c(ncn2[C@@H]2O[C@@H]3COP(=O)(O)O[C@H]4[C@@H](O)[C@H](n5cc(-c6cc7ccccc7s6)c6c(N)ncnc65)O[C@@H]4COP(=O)(O)O[C@@H]2[C@@H]3O)c(=O)[nH]1 [Compound 1l, 2-amino-9-((5R,7R,8R,12aR,14R,15R,15aS,16R)-14-(4-amino-5-(benzo[b]thiophen-2-yl)-7H-pyrrolo[2,3-d]pyrimidin-7-yl)-2,10,15,16-tetrahydroxy-2,10-dioxidooctahydro-12H-5,8-methanofuro[3,2-l][1,3,6,9,11]pentaoxa[2,10]diphosphacyclotetradecin-7-yl)-1,9-dihydro-6H-purin-6-one] | 47.6 µM | 47.5 µM | > 200 µM
